The structures appear in SMILES notation. pIC50: −log10 of the molar value. Where a SMILES comes first, the peptide text is derived from it.

This assay has as its target T1, Elastase from human neutrophils (Homo sapiens, UniProt P08246).
T1 sequence (P08246 30-267): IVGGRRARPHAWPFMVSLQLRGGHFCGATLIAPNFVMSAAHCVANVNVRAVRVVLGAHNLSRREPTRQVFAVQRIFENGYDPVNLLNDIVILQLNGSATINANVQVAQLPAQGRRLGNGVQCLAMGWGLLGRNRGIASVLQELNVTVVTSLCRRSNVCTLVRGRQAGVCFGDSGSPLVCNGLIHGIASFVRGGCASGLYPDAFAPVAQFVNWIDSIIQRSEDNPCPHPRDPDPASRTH
The assay is described as follows: Enzymatic assay, elastase. The following applies: Elastase IC50.
Take `CCCC[C@@H]1NC(=O)[C@@H]2CCCN2C(=O)[C@H]2CCCN2C(=O)[C@H](Cc2ccc(O)cc2)NC(=O)[C@@H]2CSSC[C@H](NC1=O)C(=O)N[C@@H]([C@@H](C)O)C(=O)N[C@@H](C)C(=O)N[C@@H](CO)C(=O)N[C@@H](CC(C)C)C(=O)N1CCC[C@H]1C(=O)N1CCC[C@H]1C(=O)N[C@@H](Cc1ccc(O)cc1)C(=O)N2` [Ex. 113] (HELM PEPTIDE1{[Nle].C.T.A.S.L.P.P.Y.C.Y.[dP].P}$PEPTIDE1,PEPTIDE1,2:R3-10:R3|PEPTIDE1,PEPTIDE1,1:R1-13:R2$$$V2.0): the pIC50 was 7.46.
`CCCCCCCC[C@@H]1NC(=O)[C@H](CO)NC(=O)[C@H](C)NC(=O)[C@H]([C@@H](C)O)NC(=O)[C@@H]2CSSC[C@H](NC(=O)[C@H](CCC(N)=O)NC(=O)[C@@H]3CCCN3C(=O)[C@@H]3CCCN3C1=O)C(=O)N[C@@H](Cc1ccc(O)cc1)C(=O)N1CCC[C@@H]1C(=O)N1CCC[C@H]1C(=O)N[C@@H](CCc1ccccc1)C(=O)N2` [Ex. 161] (HELM PEPTIDE1{[O=C([C@H](CCc1ccccc1)N[*:1])[*:2]].C.T.A.S.[CCCCCCCC[C@H](N[*:1])C(=O)[*:2]].P.P.Q.C.Y.[dP].P}$PEPTIDE1,PEPTIDE1,2:R3-10:R3|PEPTIDE1,PEPTIDE1,1:R1-13:R2$$$V2.0) had a pIC50 of 8.22.
`CCCCCCCC[C@@H]1NC(=O)[C@H](CO)NC(=O)[C@H](C)NC(=O)[C@H]([C@@H](C)O)NC(=O)[C@@H]2CSSC[C@H](NC(=O)[C@H](CCC(N)=O)NC(=O)[C@@H]3CCCN3C(=O)[C@@H]3CCCN3C1=O)C(=O)N[C@@H](CCC(N)=O)C(=O)N1CCC[C@@H]1C(=O)N1CCC[C@H]1C(=O)N[C@@H](CCCC)C(=O)N2` [Ex. 129] (HELM PEPTIDE1{[Nle].C.T.A.S.[CCCCCCCC[C@H](N[*:1])C(=O)[*:2]].P.P.Q.C.Q.[dP].P}$PEPTIDE1,PEPTIDE1,2:R3-10:R3|PEPTIDE1,PEPTIDE1,1:R1-13:R2$$$V2.0) showed a pIC50 of 7.52.
For `CCCC[C@@H]1NC(=O)[C@@H]2CCCN2C(=O)[C@@H](C(C)C)NC(=O)[C@H](Cc2ccc(O)cc2)NC(=O)[C@@H]2CSSC[C@H](NC1=O)C(=O)N[C@@H]([C@@H](C)O)C(=O)N[C@@H](C)C(=O)N[C@@H](CO)C(=O)N[C@@H]([C@@H](C)CC)C(=O)N1CCC[C@H]1C(=O)N1CCC[C@H]1C(=O)N[C@@H](CCC(N)=O)C(=O)N2` [Ex. 119] (HELM PEPTIDE1{A.S.I.P.P.Q.C.Y.[dV].P.[Nle].C.T}$PEPTIDE1,PEPTIDE1,7:R3-12:R3|PEPTIDE1,PEPTIDE1,1:R1-13:R2$$$V2.0) the value was 7.35.
For `CCCC[C@@H]1NC(=O)[C@@H]2CCCN2C(=O)[C@H]2CCCN2C(=O)[C@H](Cc2ccc(O)cc2)NC(=O)[C@H](CCSC)NC(=O)[C@H](CCC(N)=O)NC(=O)[C@@H]2CCCN2C(=O)[C@@H]2CCCN2C(=O)[C@H]([C@@H](C)CC)NC(=O)[C@H](CO)NC(=O)[C@H](C)NC(=O)[C@H]([C@@H](C)O)NC(=O)[C@H]([C@@H](C)O)NC1=O` [Ex. 108] (HELM PEPTIDE1{[Nle].T.T.A.S.I.P.P.Q.M.Y.[dP].P}$PEPTIDE1,PEPTIDE1,1:R1-13:R2$$$V2.0) the value was 7.51; for `CCCC[C@@H]1NC(=O)[C@H](CCC(N)=O)NC(=O)[C@@H](CCC(N)=O)NC(=O)[C@H](CC2CCCCC2)NC(=O)[C@@H]2CSSC[C@H](NC1=O)C(=O)N[C@@H]([C@@H](C)O)C(=O)N[C@@H](C)C(=O)N[C@@H](CO)C(=O)N[C@@H](CC1CCCCC1)C(=O)N1CCC[C@H]1C(=O)N1CCC[C@H]1C(=O)N[C@@H](CCC(N)=O)C(=O)N2` [Ex. 171] (HELM PEPTIDE1{[Nle].C.T.A.S.[Cha].P.P.Q.C.[Cha].[dQ].Q}$PEPTIDE1,PEPTIDE1,2:R3-10:R3|PEPTIDE1,PEPTIDE1,1:R1-13:R2$$$V2.0), 7.89.
In turn, `CCCC[C@@H]1NC(=O)[C@@H]2CCCN2C(=O)[C@H]2CCCN2C(=O)[C@H](Cc2ccc(O)cc2)NC(=O)[C@H](CO)NC(=O)[C@H](CCC(N)=O)NC(=O)[C@@H]2CCCN2C(=O)[C@@H]2CCCN2C(=O)[C@H]([C@@H](C)CC)NC(=O)[C@H](CO)NC(=O)[C@H](C)NC(=O)[C@H]([C@@H](C)O)NC(=O)[C@H](CCC(N)=O)NC1=O` [Ex. 111] (HELM PEPTIDE1{[Nle].Q.T.A.S.I.P.P.Q.S.Y.[dP].P}$PEPTIDE1,PEPTIDE1,1:R1-13:R2$$$V2.0) had a pIC50 of 7.34.
With `CCCC[C@@H]1NC(=O)[C@@H]2CCCN2C(=O)[C@H]2CCCN2C(=O)[C@H](Cc2ccc(O)cc2)NC(=O)[C@@H]2CSSC[C@H](NC1=O)C(=O)N[C@@H]([C@@H](C)O)C(=O)N[C@@H](C)C(=O)N[C@@H](CO)C(=O)N[C@@H](CCCC)C(=O)N1CCC[C@H]1C(=O)N1CCC[C@H]1C(=O)N[C@@H](CCC(N)=O)C(=O)N2` [Ex. 79] (HELM PEPTIDE1{[Nle].C.T.A.S.[Nle].P.P.Q.C.Y.[dP].P}$PEPTIDE1,PEPTIDE1,2:R3-10:R3|PEPTIDE1,PEPTIDE1,1:R1-13:R2$$$V2.0) the figure was 7.18; with `CC[C@H](C)[C@@H]1NC(=O)[C@H](CO)NC(=O)[C@H](C)NC(=O)[C@H]([C@@H](C)O)NC(=O)[C@H]([C@@H](C)O)NC(=O)[C@H](CCc2ccccc2)NC(=O)[C@@H]2CCCN2C(=O)[C@H]2CCCN2C(=O)[C@H](Cc2ccc(O)cc2)NC(=O)[C@H](CCC(N)=O)NC(=O)[C@H](CCC(N)=O)NC(=O)[C@@H]2CCCN2C(=O)[C@@H]2CCCN2C1=O` [Ex. 134] (HELM PEPTIDE1{[O=C([C@H](CCc1ccccc1)N[*:1])[*:2]].T.T.A.S.I.P.P.Q.Q.Y.[dP].P}$PEPTIDE1,PEPTIDE1,1:R1-13:R2$$$V2.0), 7.64; with `CCCC[C@@H]1NC(=O)[C@@H]2CCCN2C(=O)[C@H]2CCCN2C(=O)[C@H](Cc2ccc(O)cc2)NC(=O)[C@@H]2CSSC[C@H](NC1=O)C(=O)N[C@@H]([C@@H](C)O)C(=O)N[C@@H]([C@@H](C)O)C(=O)N[C@@H](CO)C(=O)N[C@@H]([C@@H](C)CC)C(=O)N1CCC[C@H]1C(=O)N1CCC[C@H]1C(=O)N[C@@H](Cc1ccc(O)cc1)C(=O)N2` [Ex. 77] (HELM PEPTIDE1{[Nle].C.T.T.S.I.P.P.Y.C.Y.[dP].P}$PEPTIDE1,PEPTIDE1,2:R3-10:R3|PEPTIDE1,PEPTIDE1,1:R1-13:R2$$$V2.0), 7.17.
Turning to `C[C@@H]1NC(=O)[C@H]([C@@H](C)O)NC(=O)[C@@H]2CSSC[C@H](NC(=O)[C@H](CCC(N)=O)NC(=O)[C@@H]3CCCN3C(=O)[C@@H]3CCCN3C(=O)[C@H](CC3CCCCC3)NC(=O)[C@H](CO)NC1=O)C(=O)N[C@@H](Cc1ccc(O)cc1)C(=O)N1CCC[C@@H]1C(=O)N1CCC[C@H]1C(=O)N[C@@H](CCc1ccccc1)C(=O)N2` [Ex. 162] (HELM PEPTIDE1{[O=C([C@H](CCc1ccccc1)N[*:1])[*:2]].C.T.A.S.[Cha].P.P.Q.C.Y.[dP].P}$PEPTIDE1,PEPTIDE1,2:R3-10:R3|PEPTIDE1,PEPTIDE1,1:R1-13:R2$$$V2.0), the pIC50 is 7.90.
For `CCCC[C@@H]1NC(=O)[C@@H]2CCCN2C(=O)[C@H]2CCCN2C(=O)[C@H](Cc2ccc(O)cc2)NC(=O)[C@H](CCCNC(=N)N)NC(=O)[C@H](CCC(N)=O)NC(=O)[C@@H]2CCCN2C(=O)[C@@H]2CCCN2C(=O)[C@H]([C@@H](C)CC)NC(=O)[C@H](CO)NC(=O)[C@H](C)NC(=O)[C@H]([C@@H](C)O)NC(=O)[C@H](CCC(N)=O)NC1=O` [Ex. 107] (HELM PEPTIDE1{[Nle].Q.T.A.S.I.P.P.Q.R.Y.[dP].P}$PEPTIDE1,PEPTIDE1,1:R1-13:R2$$$V2.0) the value was 7.29; for `CCCC[C@@H]1NC(=O)[C@H](CCC(N)=O)NC(=O)[C@H]2CCCN2C(=O)[C@H](CCC(N)=O)NC(=O)[C@@H]2CSSC[C@H](NC1=O)C(=O)N[C@@H]([C@@H](C)O)C(=O)N[C@@H](C)C(=O)N[C@@H](CO)C(=O)N[C@@H](CC1CCCCC1)C(=O)N1CCC[C@H]1C(=O)N1CCC[C@H]1C(=O)N[C@@H](CCC(N)=O)C(=O)N2` [compound 164] (HELM PEPTIDE1{[Nle].C.T.A.S.[Cha].P.P.Q.C.Q.[dP].Q}$PEPTIDE1,PEPTIDE1,2:R3-10:R3|PEPTIDE1,PEPTIDE1,1:R1-13:R2$$$V2.0), 7.62.
For `CC[C@H](C)[C@@H]1NC(=O)[C@@H]2CCCN2C(=O)[C@H]2CCCN2C(=O)[C@H](Cc2ccc(O)cc2)NC(=O)[C@@H]2CSSC[C@H](NC1=O)C(=O)N[C@@H]([C@@H](C)O)C(=O)N[C@@H](C)C(=O)N[C@@H](CO)C(=O)N[C@@H](CC(C)C)C(=O)N1CCC[C@H]1C(=O)N1CCC[C@H]1C(=O)N[C@@H](CCC(N)=O)C(=O)N2` [Ex. 76] (HELM PEPTIDE1{I.C.T.A.S.L.P.P.Q.C.Y.[dP].P}$PEPTIDE1,PEPTIDE1,2:R3-10:R3|PEPTIDE1,PEPTIDE1,1:R1-13:R2$$$V2.0) the value was 7.15.
With `CCCC[C@@H]1NC(=O)[C@H]([C@@H](C)O)NC(=O)[C@@H](Cc2ccccc2)NC(=O)[C@H](Cc2ccc(O)cc2)NC(=O)[C@@H]2CSSC[C@H](NC1=O)C(=O)N[C@@H]([C@@H](C)O)C(=O)N[C@@H](C)C(=O)N[C@@H](CO)C(=O)N[C@@H]([C@@H](C)CC)C(=O)N1CCC[C@H]1C(=O)N1CCC[C@H]1C(=O)N[C@@H](CCC(N)=O)C(=O)N2` [Ex. 128] (HELM PEPTIDE1{A.S.I.P.P.Q.C.Y.[dF].T.[Nle].C.T}$PEPTIDE1,PEPTIDE1,7:R3-12:R3|PEPTIDE1,PEPTIDE1,1:R1-13:R2$$$V2.0) the figure was 7.40; with `CCCCCCCC[C@@H]1NC(=O)[C@H](CCC(=O)O)NC(=O)[C@@H](CCCCN)NC(=O)[C@H](Cc2ccc(O)cc2)NC(=O)[C@@H]2CSSC[C@H](NC1=O)C(=O)N[C@@H]([C@@H](C)O)C(=O)N[C@@H](C)C(=O)N[C@@H](CO)C(=O)N[C@@H]([C@@H](C)CC)C(=O)N1CCC[C@H]1C(=O)N1CCC[C@H]1C(=O)N[C@@H](CCC(N)=O)C(=O)N2` [compound 165] (HELM PEPTIDE1{[CCCCCCCC[C@H](N[*:1])C(=O)[*:2]].C.T.A.S.I.P.P.Q.C.Y.[dK].E}$PEPTIDE1,PEPTIDE1,2:R3-10:R3|PEPTIDE1,PEPTIDE1,1:R1-13:R2$$$V2.0), 7.66.

The record behind these values is patent US8658604B2, “Template-fixed beta-hairpin peptidomimetics with protease inhibitory activity” (Polyphor Ltd, priority 2005, dated 2014).
